Values quoted from earlier work as cited in patent US8535699B2, “Insect-repelling resin composition and extended-release insect-repelling resin molded product obtained therefrom” (Sumika Life Tech, Limited, priority 2009, dated 2013).

Conditions: at 20° C.

Row | Structure (SMILES) | Vapour pressure
1 | CC(C)=CC1C(C(=O)OCc2cccc(Oc3ccccc3)c2)C1(C)C (centres unmarked) [Phenothrin] | 1.2×10^−6 mmHg
2 | CCOP(=O)(OCC)OCC [Triethyl phosphate] | 0.3 mmHg
